{"source": "patent US9504666B2", "about": "“Chloroprocaine-based pharmaceutical composition for repeated intrathecal administration” (SINTETICA S.A., priority 2012, dated 2016)", "key": {"rats [1]": {"test_system": "rats", "conditions": "rat, in vivo", "description": "(§1) A pre-clinical trial was carried out to assess the neurotoxicity of 2-chloroprocaine by intrathecal administration in repeated doses using a saline solution as control.\n(§2) A first group of six rats was repeatedly treated with 20 μl of an injectable saline solution by intrathecal administration once a day."}, "rats [2]": {"test_system": "rats", "assay": "Tail flick latency after repeated intrathecal doses", "conditions": "for tail flick latency before injecting: before the daily 20 μl intrathecal injection", "description": "The data are presented as ±SEM average of 6 rats;\nas §1, §2"}, "rats [3]": {"test_system": "rats", "assay": "Behaviour observation in the pre-clinical neurotoxicity trial with repeated intrathecal doses", "conditions": "for changes in behavior: 7 consecutive days", "description": "as §1, §2"}, "[4]": {"conditions": "in particular in form of hydrochloride; cited from earlier work"}, "[5]": {"conditions": "cited from earlier work"}, "rats [6]": {"test_system": "rats", "assay": "Motor function score after repeated intrathecal doses", "conditions": "20 μl of 0.5% solution intrathecally once a day, 7 consecutive days", "description": "as §1, §2"}, "[7]": {"assay": "Body weight variation after repeated intrathecal doses", "conditions": "rats, 20 μl of 0.5% solution intrathecally once a day, 7 consecutive days", "description": "as §1, §2"}, "rat": {"test_system": "rat", "conditions": "in vivo rat models, intrathecal, equipotent concentrations, versus lidocaine; cited from earlier work"}, "[8]": {"test_system": "conus medullaris (cauda equina)", "assay": "Histological nerve injury score of 10 mm caudal portion of conus medullaris (cauda equina)", "conditions": "0.5% solution"}, "rats [9]": {"test_system": "rats", "conditions": "rat, in vivo", "remark": "listed apart in the source", "description": "as §1, §2"}, "[10]": {"conditions": "cited from earlier work", "remark": "listed apart in the source"}, "[11]": {"conditions": "20 μl of 0.5% solution intrathecally, chloroprocaine not significant, bupivacaine P<0.001"}, "[12]": {"conditions": "rats, 20 μl of 0.5% solution intrathecally once a day"}}, "note": "Like-named read-outs stand apart in the source and are kept apart here."}
{"smiles": "CCN(CC)CCOC(=O)c1ccc(N)cc1Cl", "note": "[2-chloroprocaine, 2-(diethylaminoethyl) 4-amino-2-chlorobenzoate]", "values": [{"measurement": "motor functions (score)", "setting": "rats [1]", "result": "remained unchanged"}, {"measurement": "tail flick latency before injecting", "setting": "rats [2]; 0.5% solution", "result": "comparable with the values of rats treated with vehicle"}, {"measurement": "tail flick latency before injecting", "setting": "rats [2]; 1% solution", "result": "comparable with the values of rats treated with vehicle"}, {"measurement": "tail flick latency before injecting", "setting": "rats [2]; 2% solution", "result": "comparable with the values of rats treated with vehicle"}, {"measurement": "tail flick latency 20 minutes after injection", "setting": "rats [2]; [11]", "result": "slight increase"}, {"measurement": "tail flick latency 20 minutes after injection", "setting": "rats [2]; 20 μl of 1% solution intrathecally, P<0.05", "result": "significant increase"}, {"measurement": "tail flick latency 20 minutes after injection", "setting": "rats [2]; 20 μl of 2% solution intrathecally, P<0.001", "result": "significant increase"}, {"measurement": "changes in behavior", "setting": "rats [3]; [12]", "result": "No appreciable changes in behavior"}, {"measurement": "changes in behavior", "setting": "rats [3]; rats, 20 μl of 1% solution intrathecally once a day", "result": "No appreciable changes in behavior"}, {"measurement": "changes in behavior", "setting": "rats [3]; rats, 20 μl of 2% solution intrathecally once a day", "result": "No appreciable changes in behavior"}, {"measurement": "tolerability compared with other administered concentrations", "setting": "rats [3]; rats, repeated intrathecal, 2-chloroprocaine 2%, bupivacaine 0.5%", "result": "less tolerated"}, {"measurement": "neurotoxicity of repeated intrathecal administration", "setting": "rats [3]; repeated intrathecal administration", "result": "does not determine detectable neurotoxicity"}, {"measurement": "lasting of effect", "setting": "[4]", "result": "30 to 60", "unit": "min"}, {"measurement": "onset", "setting": "[4]", "result": "5 to 15", "unit": "min"}, {"measurement": "half-life", "setting": "[5]; offset by plasma pseudo cholinesterase", "result": "lower than one"}, {"measurement": "plasma half-life", "setting": "[5]; plasma", "result": "45 to 60", "unit": "s"}]}
{"smiles": "CCCCN1CCCCC1C(=O)Nc1c(C)cccc1C", "note": "(stereo not drawn) [bupivacaine]", "values": [{"measurement": "motor functions (score)", "setting": "rats [6]", "result": "two rats on the sixth day and three rats on the seventh day showed bilateral limbic weakness which influenced perambulation (score 2)"}, {"measurement": "body weight", "setting": "[7]", "result": "decreased"}, {"measurement": "morphological damage and functional worsening", "setting": "rat", "result": "less severe morphological damage and functional worsening than lidocaine"}, {"measurement": "tail flick latency before injecting", "setting": "rats [2]; 0.5% solution", "result": "comparable with the values of rats treated with vehicle"}, {"measurement": "tail flick latency 20 minutes after injection", "setting": "rats [2]; [11]", "result": "significant increase"}, {"measurement": "changes in behavior", "setting": "rats [3]; [12]", "result": "modest sleepiness in one rat on the fifth day and in two rats on the sixth and seventh days"}, {"measurement": "moderately inflammatory infiltrate in some fibers, number of rats", "setting": "[8]; group of 6 rats, 7 days repeated intrathecal", "result": "one"}, {"measurement": "histological score (nerve injury score 0 to 3)", "setting": "[8]; rats, 20 μl intrathecally once a day for 7 days, ±SEM of 6 rats, vehicle 0.809±0.067", "result": "0.979±0.110"}, {"measurement": "tolerability compared with other administered concentrations", "setting": "rats [9]", "result": "less tolerated"}]}
{"smiles": "CCN(CC)CC(=O)Nc1c(C)cccc1C", "note": "[lidocaine]", "values": [{"measurement": "transient neurologic syndrome (TNS)", "setting": "[10]; use in spinal anesthesiological practice, Pollock 2002", "result": "associated to the onset of transient neurologic syndrome (TNS)"}]}
{"smiles": "CCN(CC)CCOC(=O)c1ccc(N)cc1", "note": "[procaine]", "values": [{"measurement": "percentage of cases refractory to local anesthesia", "setting": "[10]; spinal anesthesia, Hodgson et al. 2000", "result": 17, "unit": "%"}]}
